From PMC12355554, “Development of novel mitochondrial pyruvate carrier inhibitors for breast cancer treatment” (The Journal of Biological Chemistry, 2025)
Where two headings read alike, the source gives them in different places.

Key:
[1] = molecular target: T1, mitochondrial pyruvate carrier (MPC) (Mus musculus, UniProt P63030+Q9D023); assay: Seahorse XFe96 Pyr-driven respiration in rPFO-permeabilized 4T1 cells; type: cell-based, murine; conditions: for effect on Pyr-driven respiration: Pyr/Mal, candidate compounds 1 μM
T1 construct: host or cells: 4T1 murine breast cancer cells, rPFO-permeabilized
T1 sequence (P63030 1-109): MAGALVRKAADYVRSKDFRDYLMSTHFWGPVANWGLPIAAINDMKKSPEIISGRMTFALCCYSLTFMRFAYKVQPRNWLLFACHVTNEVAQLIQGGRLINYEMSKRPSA
T1 sequence (Q9D023 1-127): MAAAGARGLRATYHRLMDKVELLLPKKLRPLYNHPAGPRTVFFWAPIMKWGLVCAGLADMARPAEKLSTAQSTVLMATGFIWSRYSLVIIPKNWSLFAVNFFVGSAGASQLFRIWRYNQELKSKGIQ
Experimental: After validating the ability of rPFO to permeabilize 4T1 cells without damaging mitochondria, we sought to investigate the ability of candidate compounds to inhibit Pyr-driven respiration in these cells (Fig. 1, D–G). In this regard, 4T1 cells were seeded in Seahorse XFe96 well plates and were incubated to reach confluence (∼18–24 h) in growth media (+serum). Growth media were then aspirated, and cells were washed with MAS buffer to remove serum and endogenous metabolic substrates. Serum- and substrate-starved cells were then incubated for equilibration in MAS buffer in a non-CO2 incubator. Inhibitors, rPFO, and substrate milieus were prepared in MAS buffer to be injected in succession to allow for real-time observation of the effects of compound-treated cultures on oxygen consumption rates (OCRs) when compared with vehicle (dimethyl sulfoxide [DMSO])-treated cells. Equilibrated intact cells were allowed to establish basal respiratory rates, followed by the injection of candidate compounds C1 to C4 at varying dose-titrated concentrations, respectively, and acute decreases in OCR were observed (Fig. 1, D–G). Compound exposure was performed in intact cells to avoid influence of rPFO on acute cellular targets. Cells were then exposed to rPFO, followed by the carbonyl cyanide-p-trifluoromethoxyphenylhydrazone (FCCP)–stimulated Pyr substrate milieu, which consisted of Pyr, malate (Mal), and dichloroacetate (DCA) to fuel uninhibited Pyr respiratory flux and maximal respiration. Mal and DCA were included to allow for continuous TCA cycle function without acetyl CoA feedback–mediated inhibition (Mal) or Pyr dehydrogenase–regulated inhibition (DCA) of Pyr uptake. Here, we observed a dose-dependent inhibition of Pyr-driven respiration in cells treated with the candidate compounds, allowing for logarithmic dose–response curves to be generated, and 50% inhibitory concentrations (IC50) to be calculated (Fig. 1, D–G). Finally, complex I and […] were injected to halt respiration and end the assay. […] In this regard, the fluoro-aminocarboxycoumarin derivative C4 has been designated as the lead candidate for further investigation.
(§1) Permeabilized cell assays were performed using rPFO as described previously. 4T1 cells were seeded (20,000 cells/well) onto Seahorse XFe96 well plates and incubated overnight in growth media at 37 °C and 5% CO2 for adherence. On the day of the assay, growth media were aspirated and replaced with MAS buffer (70 mM sucrose, 220 mM mannitol, 10 mM potassium phosphate monobasic, 5 mM magnesium chloride, 2 mM Hepes, and 1 mM EGTA) after 3X rinse of growth media to remove serum and endogenous metabolic substrates, and incubated at 37 °C in a non-CO2 incubator. Respective inhibitor and substrate milieu's were prepared in MAS buffer for port injections A–D at 8X, 9X, 10X, and 11X the target cell concentrations to account for intrinsic dilution factor of in situ injections of each port. […] Final substrate concentrations for specific tests were as follows: (5 mM Pyr , 0.5 mM Mal, 2 mM DCA; 10 mM glutamate, 0.5 mM Mal, 2 mM DCA; 10 mM succinate, 2 μM rotenone; 20 mM methyl Pyr, 5 mM Pyr, 0.5 mM Mal, and 2 mM DCA). ATP rate assays and mitochondrial stress tests were performed according to the manufacturer's (Agilent) instructions.

[2] = tested on: succinate-driven respiration in 4T1 cells; assay: Seahorse succinate-driven respiration in permeabilized 4T1 cells; type: cell-based, murine; conditions: candidate compounds 1 μM
Description: (§2) Although our initial experiments and previous literature illustrate the ability of the candidate compounds to inhibit Pyr-driven respiration, we sought to investigate the ability of candidate compounds to inhibit respiration fueled by other metabolic substrates, glutamate and succinate (Fig. 2). Glutamate, similar to Pyr oxidation, results in NADH equivalents that fuel complex I-mediated respiration, and succinate metabolism offers FADH2 for electrons in complex II-driven respiratory processes. […] To further validate the mode of action of the candidate compounds, a series of similar Seahorse experiments were employed (Fig. 2, A–C). In these experiments, 4T1 cells were first permeabilized and were then offered metabolic substrates Pyr (Pyr/Mal; Fig. 2A), glutamate (Glu/Mal, Fig. 2B), or succinate (Fig. 2C), and the resulting OCR was observed. As described previously, Mal and DCA were included in the substrate milieu of glutamate respiration experiments. […] To validate that inhibition of Pyr respiration is due to mitochondrial Pyr uptake and not other Pyr-processing enzymes (i.e., Pyr dehydrogenase), a parallel experiment using methyl pyruvate (MePyr) was employed (Fig. 2, E and F). MePyr is permeable to the mitochondrial membranes, where in the matrix, mitochondrial esterase hydrolysis activity provides Pyr.
as §1

[3] = tested on: glutamate-driven respiration in 4T1 cells; assay: Seahorse glutamate-driven respiration in permeabilized 4T1 cells; type: cell-based, murine; conditions: Glu/Mal, candidate compounds 1 μM
Description: as §2, §1

[4] = Intrinsic CL in human liver microsomes; type: in vitro ADME; conditions: human, liver microsomes; exceeding the experimental endpoints
[5] = molecular target: T1, mitochondrial pyruvate carrier (MPC); assay: Michaelis-Menten kinetics of mitochondrial pyruvate uptake (Seahorse OCR); type: cell-based, murine; conditions: permeabilized 4T1 cells; 10 nM inhibitor
Experimental: To further investigate the type of inhibition, we employed Michaelis–Menten experiments in modified Seahorse XFe96–based assays similar to described previously, and based on the model that Pyr uptake is directly coupled to NADH oxidation and oxygen consumption (Fig. 3A). In these experiments, 4T1 cells were permeabilized and were then administered varying concentrations of Pyr in the presence or the absence of 10 nM C3 or C4, respectively (Fig. 3, B–F). A rise in OCR indicated Pyr-driven respiration, where subsequent addition of FCCP stimulated maximal respiration, and substrate-dependent increases in OCR were observed and normalized to protein content (Fig. 3, B–F). In this regard, Michaelis–Menten curves were generated using the FCCP-stimulated OCR in C3- or C4-treated and -untreated cells where Michaelis–Menten parameters of maximal velocity (Vmax) and half-maximal substrate concentrations (Km) were calculated (Fig. 3, E–G). Michaelis–Menten assumptions include direct and irreversible substrate and carrier interaction that results in the OCRs and is analogous to standard enzymatic Michaelis–Menten models (Fig. 3A). […] Thus, C3 decreased the Vmax and increased the Km, not consistent with competitive inhibition where high substrate concentrations titrate out the inhibitor to reach intrinsic Vmax values. However, potential covalent bonding of inhibitor may limit the ability of Pyr to displace C3 from the active site, resulting in the observed “mixed” mode of inhibition.

[6] = molecular target: T1, mitochondrial pyruvate carrier (MPC); assay: Methyl pyruvate reversal of inhibited Pyr-driven respiration; type: cell-based, murine; conditions: permeabilized 4T1 cells; 20 mM methyl Pyr
Description: as §2
Permeabilized cell assays were performed using rPFO as described previously. […]

[7] = read-out: IC50, inhibition of Pyr-driven respiration
[8] = average ± SEM, read-out: IC50, inhibition of Pyr-driven respiration (Fig. 1G, unit inferred)

Structure (SMILES) | IC50 [1, 7] | effect on succinate-driven respiration [2] | effect on glutamate-driven respiration [3] | effect on Pyr-driven respiration [1] | IC50 [1, 8] | half-life [4] | Vmax of Pyr-driven FCCP-stimulated OCR [5] | mode of inhibition [5] | reversal of Pyr-driven respiration effects by methyl pyruvate [6]
O=C(O)c1cc2ccc(N(c3ccc(F)cc3)c3ccc(F)cc3)cc2oc1=O [C1, 7-(bis(4-fluorophenyl)amino)-2-oxo-2H-chromene-3-carboxylic acid] | > 1000 nM |  |  |  |  |  |  |  | 
CN(c1ccc(F)cc1)c1ccc2cc(C(=O)O)c(=O)oc2c1 [C2, 7-((4-fluorophenyl)(methyl)amino)-2-oxo-2H-chromene-3-carboxylic acid] | 147 nM | without substantial effects | without substantial effects | specifically inhibits | 148 ± 8.9 nM |  |  |  | 
CN(Cc1ccccc1)c1ccc2cc(C(=O)O)c(=O)oc2c1 [C3, 7-(benzyl(methyl)amino)-2-oxo-2H-chromene-3-carboxylic acid] | 18 nM | without substantial effects | without substantial effects | specifically inhibits | 18.3 ± 0.8 nM | > 2 h | 10.8 pmol/min | mixed | completely reversed
CN(Cc1ccc(F)cc1)c1ccc2cc(C(=O)O)c(=O)oc2c1 [C4, 7-((4-fluorobenzyl)(methyl)amino)-2-oxo-2H-chromene-3-carboxylic acid] | 16 nM | without substantial effects | without substantial effects | specifically inhibits | 16.6 ± 4.8 nM |  |  | competitive | 
